Measured values published in US9580433B2 (Janssen Pharmaceutica NV, priority 2013, dated 2017).

How the values were obtained:
BACE2 = target: T1, BACE2 (Homo sapiens, UniProt Q9Y5Z0); test: BACE2 biochemical FRET based assay; details: recombinant BACE2, 450 min, pH 5.0; read-out: BACE2 Biochemical FRET based assay pIC50 (converted)
T1 construct: recombinant BACE2 protein in a final concentration of 0.4 μg/ml
T1 sequence (Q9Y5Z0 63-518): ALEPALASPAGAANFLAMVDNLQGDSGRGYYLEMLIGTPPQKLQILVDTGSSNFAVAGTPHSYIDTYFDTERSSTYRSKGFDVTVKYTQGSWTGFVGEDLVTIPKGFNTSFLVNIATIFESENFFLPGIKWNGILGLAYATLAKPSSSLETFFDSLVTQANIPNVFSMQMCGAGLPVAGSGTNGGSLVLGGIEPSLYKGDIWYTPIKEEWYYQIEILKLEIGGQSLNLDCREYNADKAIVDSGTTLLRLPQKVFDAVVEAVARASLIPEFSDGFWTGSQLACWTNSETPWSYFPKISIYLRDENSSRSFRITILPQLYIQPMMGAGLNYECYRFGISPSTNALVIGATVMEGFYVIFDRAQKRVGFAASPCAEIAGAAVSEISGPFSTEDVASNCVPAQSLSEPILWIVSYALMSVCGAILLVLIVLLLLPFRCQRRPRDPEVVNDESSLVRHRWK

[1] = tested on: Abeta total produced and secreted by SKNBE2 cells (BACE1); test: BACE1 cellular αLisa assay in SKNBE2 cells, Abeta total; assay type: cell-based, human; details: Homo sapiens, SKNBE2, 18 h, SKNBE2 cells expressing hAPP695, 18 hours incubation; read-out: Cellular αLisa assay in SKNBE2 cells Abetatotal pIC50 (converted)
Procedure: (§1) BACE1 Cellular αLisa Assay in SKNBE2 Cells
(§2) In two αLisa assays the levels of Abeta total and Abeta 1-42 produced and secreted into the medium of human neuroblastoma SKNBE2 cells are quantified. The assay is based on the human neuroblastoma SKNBE2 expressing the wild type Amyloid Precursor Protein (hAPP695). The compounds are diluted and added to these cells, incubated for 18 hours and then measurements of Abeta 1-42 and Abeta total are taken. Abeta total and Abeta 1-42 are measured by sandwich αLisa. αLisa is a sandwich assay using biotinylated antibody AbN/25 attached to streptavidin coated beads and antibody Ab4G8 or cAb42/26 conjugated acceptor beads for the detection of Abeta total and Abeta 1-42 respectively. In the presence of Abeta total or Abeta 1-42, the beads come into close proximity. The excitation of the donor beads provokes the release of singlet oxygen molecules that trigger a cascade of energy transfer in the acceptor beads, resulting in light emission. Light emission is measured after 1 hour incubation (excitation at […] and emission at 615 nm).
(§3) A best-fit curve is fitted by a minimum sum of squares method to the plot of % Controlmin versus compound concentration.

BACE1 = target: T2, BACE1 (Homo sapiens, UniProt P56817); test: BACE1 biochemical FRET based assay; details: recombinant BACE1, 450 min, pH 5.0; read-out: BACE1 Biochemical FRET based assay pIC50 (converted)
T2 construct: recombinant BACE1 protein in a final concentration of 0.04 g/ml

[2] = tested on: brain levels of soluble Aβ42, Aβ40; test: In vivo Aβ lowering, brain levels of soluble Aβ by MSD electrochemiluminescence; set-up: species or system mouse; details: 4 h after administration, untreated control set at 100
Excerpt: To determine whether acute administration of an Aβ lowering agent would reduce Aβ levels in vivo, non-transgenic rodents, e.g. mice or rats were used. Animals treated with the Aβ lowering agent were examined and compared to those untreated or treated with vehicle and brain levels of soluble Aβ42, Aβ40, Aβ38, and Aβ37 were quantitated by Meso Scale Discovery's (MSD) electrochemiluminescence detection technology. Treatment periods varied from hours (h) to days and were adjusted based on the results of the Aβ lowering once a time course of onset of effect could be established.
A typical protocol for measuring Aβ lowering in vivo is shown but it is only one of many variations that could be used to optimize the levels of detectable Aβ. For example, Aβ lowering compounds were formulated in 20% of Captisol® (a sulfo-butyl ether of β-cyclodextrin) in water or 20% hydroxypropyl 3 cyclodextrin. The Aβ lowering agents were administered as a single oral dose or by any acceptable route of administration to overnight fasted animals. After 4 h, the animals were sacrificed and Aβ levels were analysed.
Blood was collected by decapitation and exsanguinations in EDTA-treated collection tubes. Blood was centrifuged at 1900 g for 10 minutes (min) at 4° C. and the plasma recovered and flash frozen for later analysis. The brain was removed from the cranium and hindbrain. The cerebellum was removed and the left and right hemisphere were separated. The left hemisphere was stored at −18° C. for quantitative analysis of test compound levels. The right hemisphere was rinsed with phosphate-buffered saline (PBS) buffer and immediately frozen on dry ice and stored at −80° C. until homogenization for biochemical assays.
Mouse brains from non-transgenic animals were resuspended in 8 volumes of 0.4% DEA (diethylamine)/50 mM NaCl containing protease inhibitors (Roche-11873580001 or 04693159001) per gram of tissue, e.g. for 0.158 g brain, add 1.264 ml of 0.4% DEA. All samples were homogenized in the FastPrep-24 system (MP Biomedicals) using lysing matrix D (MPBio #6913-100) at 6 m/s for 20 seconds. […] Nine parts of supernatant were neutralized with 1 part 0.5 M Tris-HCl pH 6.8 and used to quantify Aβ.
To quantify the amount of Aβ42, Aβ40, Aβ38, and Aβ37 in the soluble fraction of the brain homogenates, simultaneous specific detection of Aβ42, Aβ40, Aβ38, and Aβ37 was performed using MSD's electro-chemiluminescence multiplex detection technology. […] Following this incubation and subsequent wash steps the assay was finished by adding read buffer according to the manufacturer's instructions (Meso Scale Discovery, Gaithersburg, Md.).
The SULFO-TAG emits light upon electrochemical stimulation initiated at the electrode. MSD Sector instrument SI6000 was used for signal read-out. […]

[3] = tested on: Abeta 1-42 produced and secreted by SKNBE2 cells (BACE1); test: BACE1 cellular αLisa assay in SKNBE2 cells, Abeta 1-42; assay type: cell-based, human; details: Homo sapiens, SKNBE2, 18 h, SKNBE2 cells expressing hAPP695, 18 hours incubation; read-out: Cellular αLisa assay in SKNBE2 cells Abeta 42 pIC50 (converted)
Procedure: as §1, §2, §3

T2 sequence (P56817 46-501): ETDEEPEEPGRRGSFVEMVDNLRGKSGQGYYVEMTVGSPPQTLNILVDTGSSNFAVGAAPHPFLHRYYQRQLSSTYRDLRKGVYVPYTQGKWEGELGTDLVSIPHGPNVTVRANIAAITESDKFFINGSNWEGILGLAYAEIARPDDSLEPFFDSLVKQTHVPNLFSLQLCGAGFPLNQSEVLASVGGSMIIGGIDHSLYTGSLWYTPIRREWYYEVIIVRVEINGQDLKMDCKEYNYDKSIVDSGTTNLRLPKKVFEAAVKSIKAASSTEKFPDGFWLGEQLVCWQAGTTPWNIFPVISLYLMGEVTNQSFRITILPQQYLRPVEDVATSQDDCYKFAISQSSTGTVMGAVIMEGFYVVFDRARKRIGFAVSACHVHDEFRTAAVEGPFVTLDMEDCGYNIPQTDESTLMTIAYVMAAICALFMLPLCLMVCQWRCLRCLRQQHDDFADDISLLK

| SMILES | IC50 (BACE2) | IC50 [1] | IC50 (BACE1) | Aβ40 (% vs Ctrl)_Mean ([2]; dose 10, p.o.) | Aβ42 (% vs Ctrl)_Mean ([2]; dose 10, p.o.) | IC50 [3] | Aβ40 (% vs Ctrl)_Mean ([2]; dose 10, s.c.) | Aβ42 (% vs Ctrl)_Mean ([2]; dose 10, s.c.) |
| --- | --- | --- | --- | --- | --- | --- | --- | --- |
| Cc1nc(C(=O)Nc2ccc(F)c([C@]3(C)Cn4cncc4C(N)=N3)c2)co1 [Compound 4, N-{3-[(6R)-8-Amino-6-methyl-5,6-dihydroimidazo[1,5-a]pyrazin-6-yl]-4-fluorophenyl}-2-methyl-1,3-oxazole-4-carboxamide] | 6.46 nM | 24 nM | 11.7 nM | 111 % vs Ctrl | 108 % vs Ctrl | 26.3 nM | – | – |
| C[C@@]1(c2cc(NC(=O)c3ccc(C#N)cn3)ccc2F)Cn2cncc2C(N)=N1 [Compound 5, N-{3-[(6R)-8-Amino-6-methyl-5,6-dihydroimidazo[1,5-a]pyrazin-6-yl]-4-fluorophenyl}-5-cyanopyridine-2-carboxamide] | – | 4.79 nM | – | – | – | 5.25 nM | 108 % vs Ctrl | 100 % vs Ctrl |
